Source: paper PMC6017444, “Effects of Lysozyme on the Activity of Ionic of Fluoroquinolone Species” (Molecules : A Journal of Synthetic Chemistry and Natural …, 2018)

Biological target: T1, lysozyme (Lyz) from chicken egg white (Gallus gallus, UniProt P00698)
T1 construct: native mature protein from egg white (signal peptide removed), 129 residues, four disulfides, commercial (Sigma-Aldrich), used without further purification
Experiment: quenching of ligand fluorescence by protein (excitation […] nm), Stern-Volmer, static
Conditions: pH 7.4, 298 K, 10 mM Trizma; zwitterionic species; KSV taken as binding constant

T1 sequence (P00698 19-147): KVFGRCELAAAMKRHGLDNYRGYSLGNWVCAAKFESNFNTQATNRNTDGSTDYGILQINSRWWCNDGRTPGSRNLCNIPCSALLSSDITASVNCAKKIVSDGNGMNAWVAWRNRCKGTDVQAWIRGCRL

Stern-Volmer binding constant (KSV) | SMILES
(0.27 ± 0.02) × 10^4 L mol^-1 | C[C@H]1COc2c(N3CCN(C)CC3)c(F)cc3c(=O)c(C(=O)O)cn1c23 [Levofloxacin]
(1.80 ± 0.01) × 10^4 L mol^-1 | O=C(O)c1cn(C2CC2)c2cc(N3CCNCC3)c(F)cc2c1=O [Ciprofloxacin, 1-cyclopropyl-6-fluoro-4-oxo-7-(piperazin-1-yl)-1,4-dihydroquinoline-3-carboxylic acid]
